Laboratory results: PubChem BioAssay AID248 (DTP/NCI, 2004)
Values joined by “and” are separate entries in the source; they are usually repeats but may differ in a detail not shown here. Identical values can stand only once. Inconclusive results and toxic doses are left out. Rule as the data show it: active = T/C of 150% or more; inactive = T/C below 125%.

Tested on: L1210 leukemia ip in BDF1 mice, survival T/C
Test: NCI In Vivo Anticancer Drug Screen. Data for tumor model L1210 Leukemia (intraperitoneal) in B6D2F1 (BDF1) mice
Details: endpoint: mean survival time, higher = longer survival
Outline: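 Tumor was transplanted into mice, which were then dosed with test compound or vehicle alone. Survival was recorded for each group, and the treated figure was expressed relative to the control figure.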

[1] = dose: 100.0 mg/kg/injection, schedule: Q01DX001 (ip), vehicle: carboxymethylcellulose (CMC)
[2] = dose: 200.0 mg/kg/injection, schedule: Q01DX001 (ip), vehicle: carboxymethylcellulose (CMC)
[3] = dose: 400.0 mg/kg/injection, schedule: Q01DX001 (ip), vehicle: carboxymethylcellulose (CMC)
[4] = dose: 100.0 mg/kg/injection, schedule: Q01DX009 (ip), vehicle: saline with Tween-80
[5] = dose: 100.0 mg/kg/injection, schedule: Q04DX003 (ip), vehicle: saline with Tween-80
[6] = dose: 200.0 mg/kg/injection, schedule: Q01DX009 (ip), vehicle: saline with Tween-80
[7] = dose: 200.0 mg/kg/injection, schedule: Q04DX003 (ip), vehicle: saline with Tween-80
[8] = dose: 400.0 mg/kg/injection, schedule: Q01DX009 (ip), vehicle: saline with Tween-80
[9] = dose: 400.0 mg/kg/injection, schedule: Q04DX003 (ip), vehicle: saline with Tween-80
[10] = dose: 100.0 mg/kg/injection, schedule: Q01DX001 (ip), vehicle: saline
[11] = dose: 200.0 mg/kg/injection, schedule: Q01DX001 (ip), vehicle: saline
[12] = dose: 100.0 mg/kg/injection, schedule: Q04DX003 (ip), vehicle: saline
[13] = dose: 75.0 mg/kg/injection, schedule: Q01DX001 (ip), vehicle: saline
[14] = dose: 400.0 mg/kg/injection, schedule: Q01DX001 (ip), vehicle: saline
[15] = dose: 100.0 mg/kg/injection, schedule: Q01DX009 (ip), vehicle: acetone

Measured: T/C

Cc1ccc(NC(=S)N(CCC#N)Cc2ccccc2)cc1C
inactive: [1] 94 % of control | dose: 100.0 mg/kg/injection, schedule: Q01DX009 (ip), vehicle: carboxymethylcellulose (CMC) 93 % of control and 107 % of control | dose: 100.0 mg/kg/injection, schedule: Q04DX002 (ip), vehicle: carboxymethylcellulose (CMC) 98 % of control | dose: 100.0 mg/kg/injection, schedule: Q04DX003 (ip), vehicle: carboxymethylcellulose (CMC) 90 % of control | [2] 100 % of control | dose: 200.0 mg/kg/injection, schedule: Q01DX009 (ip), vehicle: carboxymethylcellulose (CMC) 89 % of control and 91 % of control | dose: 200.0 mg/kg/injection, schedule: Q04DX002 (ip), vehicle: carboxymethylcellulose (CMC) 101 % of control and 88 % of control | dose: 200.0 mg/kg/injection, schedule: Q04DX003 (ip), vehicle: carboxymethylcellulose (CMC) 95 % of control | [3] 90 % of control | dose: 400.0 mg/kg/injection, schedule: Q01DX009 (ip), vehicle: carboxymethylcellulose (CMC) 86 % of control | dose: 400.0 mg/kg/injection, schedule: Q04DX002 (ip), vehicle: carboxymethylcellulose (CMC) 95 % of control and 88 % of control | dose: 400.0 mg/kg/injection, schedule: Q04DX003 (ip), vehicle: carboxymethylcellulose (CMC) 90 % of control

COc1ccccc1NC(=O)Nc1cc(C)cc(C)n1
inactive: [4] 101 % of control | [5] 97 % of control | [6] 98 % of control | [7] 97 % of control | [8] 104 % of control | [9] 101 % of control

COc1ccc(-c2ccccc2C(=O)O)cc1
inactive: [1] 107 % of control | [2] 96 % of control | [3] 100 % of control

COC(=O)c1cc(=O)[nH]n1C
inactive: dose: 100.0 mg/kg/injection, schedule: Q01DX009 (ip), vehicle: Klucel (hydroxypropylcellulose) (HPC) 104 % of control | dose: 200.0 mg/kg/injection, schedule: Q01DX009 (ip), vehicle: Klucel (hydroxypropylcellulose) (HPC) 104 % of control | dose: 400.0 mg/kg/injection, schedule: Q01DX009 (ip), vehicle: Klucel (hydroxypropylcellulose) (HPC) 101 % of control

N#C[Se]C[Se]C#N
inactive: dose: 1.56 mg/kg/injection, schedule: Q01DX001 (ip), vehicle: saline 95 % of control | dose: 3.13 mg/kg/injection, schedule: Q01DX001 (ip), vehicle: saline 100 % of control | dose: 6.25 mg/kg/injection, schedule: Q01DX001 (ip), vehicle: saline 100 % of control

CC(=O)NCCSC(=O)C(=O)SCCNC(C)=O
inactive: dose: 25.0 mg/kg/injection, schedule: Q01DX001 (ip), vehicle: saline 115 % of control | dose: 25.0 mg/kg/injection, schedule: Q01DX Z (ip), vehicle: saline 102 % of control | dose: 50.0 mg/kg/injection, schedule: Q01DX001 (ip), vehicle: saline 102 % of control | dose: 50.0 mg/kg/injection, schedule: Q01DX Z (ip), vehicle: saline 96 % of control | [10] 102 % of control | dose: 100.0 mg/kg/injection, schedule: Q01DX Z (ip), vehicle: saline 96 % of control | [11] 94 % of control and 96 % of control and 104 % of control | dose: 450.0 mg/kg/injection, schedule: Q01DX001 (ip), vehicle: saline 86 % of control

CCN(CC)CCCC(C)Nc1cc(N)nc2nccnc12 (stereo unspecified)
inactive: dose: 25.0 mg/kg/injection, schedule: Q04DX003 (ip), vehicle: saline 102 % of control | dose: 50.0 mg/kg/injection, schedule: Q04DX003 (ip), vehicle: saline 111 % of control | [12] 107 % of control

CC12CCC(/C(=C/N(O)/C=C3\C(=O)C4(C)CCC3C4(C)C)C1=O)C2(C)C
inactive: [13] 96 % of control | dose: 150.0 mg/kg/injection, schedule: Q01DX001 (ip), vehicle: saline 91 % of control | dose: 300.0 mg/kg/injection, schedule: Q01DX001 (ip), vehicle: saline 94 % of control

Cc1cc(C(C)(C)C)ccc1S(=O)(=O)C1CC1c1ccccc1 (stereo unspecified)
inactive: [10] 98 % of control | [11] 102 % of control | [14] 98 % of control

ClC(Cl)(Cl)C/C=C\CBr
inactive: dose: 25.0 mg/kg/injection, schedule: Q01DX009 (ip), vehicle: acetone 98 % of control | dose: 50.0 mg/kg/injection, schedule: Q01DX009 (ip), vehicle: acetone 102 % of control | dose: 50.0 mg/kg/injection, schedule: Q04DX003 (ip), vehicle: acetone 97 % of control | dose: 100.0 mg/kg/injection, schedule: Q01DX001 (ip), vehicle: acetone 89 % of control | [15] 93 % of control | dose: 100.0 mg/kg/injection, schedule: Q04DX003 (ip), vehicle: acetone 92 % of control | dose: 200.0 mg/kg/injection, schedule: Q01DX001 (ip), vehicle: acetone 91 % of control

CCOc1ccccc1NC(=O)Oc1ccc(-c2ccccc2)cc1
inactive: [4] 98 % of control | [6] 100 % of control | [8] 93 % of control

NC(=O)n1cncn1
inactive: [10] 90 % of control | [15] 89 % of control | [11] 107 % of control | dose: 200.0 mg/kg/injection, schedule: Q01DX009 (ip), vehicle: acetone 100 % of control | [14] 100 % of control | dose: 400.0 mg/kg/injection, schedule: Q01DX009 (ip), vehicle: acetone 91 % of control

CCOC(=O)c1ccc(N2C(C#N)c3ccccc3OC2c2ccccc2O)cc1 (stereo unspecified)
inactive: dose: 100.0 mg/kg/injection, schedule: Q01DX001 (ip), vehicle: saline with Tween-80 91 % of control | [4] 93 % of control and 106 % of control | dose: 100.0 mg/kg/injection, schedule: Q04DX002 (ip), vehicle: saline with Tween-80 95 % of control and 92 % of control | [5] 90 % of control | dose: 200.0 mg/kg/injection, schedule: Q01DX001 (ip), vehicle: saline with Tween-80 88 % of control | [6] 94 % of control and 90 % of control | dose: 200.0 mg/kg/injection, schedule: Q04DX002 (ip), vehicle: saline with Tween-80 95 % of control and 97 % of control | [7] 97 % of control | dose: 400.0 mg/kg/injection, schedule: Q01DX001 (ip), vehicle: saline with Tween-80 88 % of control | [8] 94 % of control and 87 % of control | dose: 400.0 mg/kg/injection, schedule: Q04DX002 (ip), vehicle: saline with Tween-80 95 % of control and 100 % of control | [9] 89 % of control

CN(C)CCOC(=O)c1cccc(CCBr)c1
inactive: dose: 87.5 mg/kg/injection, schedule: Q01DX009 (ip), vehicle: saline 103 % of control | dose: 175.0 mg/kg/injection, schedule: Q01DX009 (ip), vehicle: saline 92 % of control | dose: 350.0 mg/kg/injection, schedule: Q01DX009 (ip), vehicle: saline 104 % of control

c1ccc([P+](Cc2cccc3c2Cc2ccccc2-3)(c2ccccc2)c2ccccc2)cc1
inactive: dose: 15.0 mg/kg/injection, schedule: Q01DX001 (ip), vehicle: carboxymethylcellulose (CMC) 104 % of control

Cc1ccccc1NC(=O)N(C)N
inactive: dose: 75.0 mg/kg/injection, schedule: Q01DX001 (ip), vehicle: carboxymethylcellulose (CMC) 93 % of control

O=C1Oc2ccccc2C(=O)Oc2ccccc2C(=O)Oc2ccccc2C(=O)Oc2ccccc21
inactive: [13] 87 % of control

C1CNCOC1
inactive: [12] 105 % of control | dose: 200.0 mg/kg/injection, schedule: Q04DX003 (ip), vehicle: saline 111 % of control

O=C1CC(=C2C(=O)c3ccccc3C2=O)c2ccccc21
inactive: [5] 95 % of control | [7] 97 % of control | [9] 106 % of control

Cc1ccc(S(=O)(=O)N2Cc3ccc([N+](=O)[O-])cc3C2)cc1
inactive: [1] 100 % of control | [2] 102 % of control | [3] 105 % of control
